In patent publication US20230399361A1, “MACROCYCLIC PEPTIDES” (UNIVERSITY OF NOTRE DAME DU LAC, priority 2022, published 2023):
Entries after “also recorded” stand apart in the source; their conditions may differ. *1 amine or outer side, *2 acyl side, *3 side chain or, on linkers, in order; H or OH if unused. Where a SMILES comes first, the peptide text is derived from it. Primed or numbered codes have the meaning given here. [ ]: non-standard residue; d: D form. The star is where a group is joined. aIle′ = Ile with backbone amide N-amino (hydrazide NNH2), CC[C@H](C)[C@@H](C(=O)[*:2])N(N)[*:1]; aVal = Val with backbone amide N-amino (hydrazide NNH2), CC(C)[C@@H](C(=O)[*:2])N(N)[*:1]; X2 = NN([C@@H](Cc1ccc(O)cc1)C(=O)[*:2])[*:1]; X1 = CC[C@H](C)[C@@H](C(=O)[*:2])N(N)[*:1]; N(NH2)LysNH2 = NCCCC[C@@H](C(N)=O)N(N)*; X3 = CC(C)[C@@H](C(=O)[*:2])N(N)[*:1]

Key:
[1] = test system: HEK293 cells stably expressing tau-RD (LM)-YFP
Procedure: MTT cell viability assays were carried out on both HEK293 cells stably expressing tau-RD (LM)-YFP and SH-SY5Y cells. Cells were cultured in the DMEM/F12 complete medium containing 10% FBS, 1% penicillin/streptomycin, and 1% Glutamax in a 75 cm^2 cell culture flask under 5% CO2 at 37° C. Cell viability was determined using the MTT reduction assay. Briefly, 15,000 cells/well were plated in a 96-well tissue culture plate and were allowed to incubate overnight in a CO2 incubator. The medium was aspirated and the NAP inhibitor prepared in complete medium was added at a given final concentration. The plate was then allowed to incubate for additional 48 h in a CO2 incubator, and the medium was aspirated again and replaced with 0.5 mg/mL MTT prepared in complete medium and incubated for additional 3 h. The medium was then replaced with DMSO to dissolve formazan crystals, and the absorbance was measured at 570 nm using a Synergy H1 microplate reader. Each data set was collected from technical replicates on at least 2 different days.

[2] = in vitro; conditions: human, serum, intact peptide in 25% human serum
Procedure: (§1) Human Serum Stability Assay. The stability of NAPs in 25% human serum (MilliporeSigma) was assessed by HPLC. The reaction was started by adding NAPs at a final concentration of 500 μM in pre-warmed serum. The mixture was incubated at 37° C. for 24 h. A 100 μL aliquot of the reaction mixture was taken out at 0, 1, 4, and 24 h and was mixed with an equal volume of 20% trichloroacetic acid and incubated at 4° C. for 15 min to precipitate serum proteins. After centrifugation at 12,000 rpm for 10 min, the supernatant was collected and mixed with an internal standard (1 mg/mL Cbz-Tyr-OH dissolved in MeCN) and stored at −20° C. Samples were then analyzed by LC-MS, and the percentage of peptide remaining was calculated by integrating peaks.

[3] = biological target: T1, tauP301L (Homo sapiens, UniProt P10636, P618L); assay: ThT fluorescence aggregation assay of recombinant tauP301L; format: biochemical; conditions: 20 μM NAP (2-fold molar excess), 10 μM tauP301L, heparin, 48 h
T1 construct: we expressed and purified full-length tau featuring a P301L mutation; His6 (N); made in house; host or cells: E. coli BL21 (DE3)
Description: NAP Tau Mimics Inhibit Tau Fibrilization In Vitro. We chose thioflavin T (ThT), an amyloid specific fluorescent dye that binds to β-sheet assemblies, to first evaluate the effect of NAPs on recombinant tau aggregation. For these studies, we expressed and purified full-length tau featuring a P301L mutation frequently observed in patients with frontotemporal dementia and Parkinsonism linked to chromosome 17 (FTDP-17). This missense mutation leads to local structure destabilization around the amyloid-forming region resulting in faster aggregation. Recombinant tauP301L aggregated in the presence of equimolar heparin sulfate (t1/2=6.5±0.4 h) starting with a very short 0.5 h lag phase, followed by a 24 h exponential growth phase. […] Compounds 2 and 4 are mono- and diaminated hexapeptides derived from the R2 PHF6* aggregation-prone sequence, whereas compounds 5, 6, 12, and 13 are all derived from the R3 PHF6 sequence. Several other NAPs had no effect on endpoint ThT fluorescence or lacked consistent inhibition across repeated experiments. […] NaOAc buffer, as evidenced by intense ThT fluorescence after 48 h (FIG. 1B).
Inhibition of full-length tau aggregation by mxyl-NAPs in a ThT assay. […] TauP301L ([…]) aggregated upon incubation with heparin over the course of 2 days, leading to high ThT fluorescence. […] We also synthesized linear and scrambled controls corresponding to each of the NAP inhibitors.
ThT Fluorescence Aggregation Assay. Recombinant tauP301L (10 μM final concentration) and NAP inhibitors (20 μM final concentration) were mixed in an aggregation buffer (100 mM sodium acetate, 10 μM ThT, 10 μM heparin, 2 mM DTT, and 0.5% DMSO, pH: 7.4) in a 96-well clear bottom black plate with a final reaction volume of 200 μL. The plate was then sealed with a clear sealing film and allowed to incubate at 37° C. with continuous shaking in a Biotek Synergy H1 microplate reader. An automated method was used to carry out ThT fluorescence measurements at an excitation wavelength of 444 nm and an emission wavelength of 485 nm at an interval of every 5 min for 48 h. Experiments were carried out in technical replicates on at least 2 different days. Every experiment included control wells that lacked tauP301L, heparin, or NAPs. The average signal from control wells lacking tau was used to subtract the background fluorescence, and the average of the first and last 10 data points of tau+heparin (no inhibitor) wells, after blank subtraction, was used to normalize the data. All data plots were generated with SigmaPlot.

[4] = 24 h, 500 μM
Procedure: as §1

[5] = biological target: T1, tauP301L; assay: Transmission electron microscopy of heparin-induced tauP301L fibrils; format: biochemical; conditions: 10 μM tauP301L + heparin, 20 μM NAP (2-fold molar excess), 96 h
Procedure: This is consistent with previous reports showing that the endpoint ThT fluorescence and fibrilization lag time for full-length tau are particularly resistant to perturbation by inhibitors. […] To confirm the effect of NAPs on the growth of mature tau fibrils, we used transmission electron microscopy (TEM) to visualize the morphology and maturity of fibrillar species. Heparin-induced tauP301L fibrils were allowed to grow over 96 h in the presence or absence of inhibitors. Untreated tauP301L afforded large, helical, and amyloid-like filamentous fibrils.
Inhibition of full-length tau fibrilization by mxyl-NAPs in TEM. To confirm the results from ThT assays, we used TEM to visualize tauP301L fibrils in the absence or presence of synthesized NAPs. As expected, heparin-induced tauP301L formed dense networks of mature fibrils (FIG. 8).
Transmission Electron Microscopy. For analyzing fibrils by TEM, aggregation was carried out under conditions similar to the assay performed above but with ThT excluded and a final reaction volume of 100 μL. Samples were incubated in a microcentrifuge tube for 4 days at 37° C. with a mixing speed of 100 rpm. A 10 μL aliquot of the sample was then applied to 400-meshed formvar-/carbon-coated copper grids and negative-stained with 2% uranyl acetate. Micrographs were obtained on a JEOL 2011 transmission electron microscope at 200 kV.

[6] = biological target: T2, Aβ42 (Homo sapiens, UniProt P05067); assay: ThT fluorescence assay with Aβ42; format: biochemical
T2 construct: Incubation of synthetic, full-length Aβ42 (40 μM)
Description: A peptidomimetic approach to tau inhibition offers prospects for achieving selectivity over other amyloids rich in f structure. As a preliminary test, we selected our best-performing aggregation-inhibitory tau mimic, 12, and determined its effect on Aβ42 aggregation in vitro (FIG. 6). […] We similarly observed no effect on aggregation kinetics at any of the concentrations tested.

T2 sequence (P05067 672-713 limits assumed): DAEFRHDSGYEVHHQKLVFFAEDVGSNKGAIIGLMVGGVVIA
T1 sequence (P10636 1-383 isoform P10636-6 P243L): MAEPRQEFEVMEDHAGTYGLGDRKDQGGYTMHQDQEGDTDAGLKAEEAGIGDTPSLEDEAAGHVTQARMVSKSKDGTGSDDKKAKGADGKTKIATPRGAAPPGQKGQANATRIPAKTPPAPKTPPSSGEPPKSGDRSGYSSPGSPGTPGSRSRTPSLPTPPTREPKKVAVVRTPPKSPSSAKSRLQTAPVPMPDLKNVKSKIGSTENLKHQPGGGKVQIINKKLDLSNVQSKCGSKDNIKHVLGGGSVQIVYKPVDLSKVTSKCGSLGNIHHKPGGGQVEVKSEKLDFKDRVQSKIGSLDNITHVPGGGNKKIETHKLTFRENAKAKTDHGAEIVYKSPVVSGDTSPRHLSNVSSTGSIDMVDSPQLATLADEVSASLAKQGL

| Compound | toxicity to HEK293 biosensor cells in seeding experiments [1] | remaining at 24 h, 500 μM [2] [%] | endpoint ThT fluorescence of tauP301L [3] | intact peptide in 25% human serum [4] [%] | tauP301L fibril morphology by TEM [5] | effect on Aβ42 aggregation (ThT) ([6]; 40 μM Aβ42, up to 4-fold molar excess (160 μM)) | effect on Aβ42 aggregation kinetics ([6]; any of the concentrations tested) | selectivity for tau over Aβ42 ([6]; in vitro) |
| --- | --- | --- | --- | --- | --- | --- | --- | --- |
| CC[C@H](C)[C@H](NC(=O)[C@H](CCC(N)=O)NC(=O)[C@@H](NC(C)=O)C(C)C)C(=O)N(N)[C@H](C(=O)N[C@@H](Cc1ccc(O)cc1)C(=O)N(N)[C@@H](CCCCN)C(N)=O)C(C)C [Compound 13, Ac-Val-Gln-Ile-aVal-Tyr-aLys-NH2] (Ac-VQI[X3]Y-{N(NH2)LysNH2}) | did not result in detectable toxicity | > 83 | significantly reduce | > 80 | particularly effective at attenuating fibril growth; also recorded: non-fibrillary amorphous aggregates similar to control |  |  |  |
| Ac-aVal-Gln-aIle-Ile-Asn-Lys-NH2 (Ac-[aVal]Q[aIle′]INK-NH2; SMILES CC[C@H](C)[C@H](NC(=O)[C@H]([C@@H](C)CC)N(N)C(=O)[C@H](CCC(N)=O)NC(=O)[C@H](C(C)C)N(N)C(C)=O)C(=O)N[C@@H](CC(N)=O)C(=O)N[C@@H](CCCCN)C(N)=O) [Compound 4] |  |  | significantly reduce |  | particularly effective at attenuating fibril growth; also recorded: non-fibrillary amorphous aggregates similar to control |  |  |  |
| CC[C@H](C)[C@@H](C(=O)N[C@H](C(=O)N(N)[C@@H](Cc1ccc(O)cc1)C(=O)N[C@@H](CCCCN)C(N)=O)C(C)C)N(N)C(=O)[C@H](CCC(N)=O)NC(=O)[C@@H](NC(C)=O)C(C)C [Compound 12, Ac-Val-Gln-aIle-Val-aTyr-Lys-NH2] (Ac-VQ[X1]V[X2]K-NH2) | did not result in detectable toxicity | > 83 | significantly reduce | > 80 | particularly effective at attenuating fibril growth; also recorded: non-fibrillary amorphous aggregates similar to control | no inhibitory effect | no effect | in vitro selectivity for tau over Aβ42 |
